IC50 data for 33 molecules are collected here from patent US10662183B2, “Inhibitors of myocardin-related transcription factor and serum response factor (MRTF/SRF)-mediated gene transcription and methods for use of the same” (THE REGENTS OF THE UNIVERSITY OF MICHIGAN, priority 2014, dated 2020).

The subject of the assay is SRE.L-firefly luciferase reporter (Rho/MKL1 pathway) in PC-3 prostate cancer cells. Nature of the assay: SRE.L-luciferase reporter assay. The class given is cell-based. The note with it: 19 h, PC-3 cells transfected with Gα12Q231L, SRE.L and pRL-TK reporters; compound 19 hrs. On the procedure: Seed PC-3 prostate cancer cells (40,000 cells/well) were grown in 96-well plates in 10% FBS containing DMEM medium. Cells were transiently transfected with the Ga12QL activator of the Rho/MKL1 pathway, along with the SRE.L-firefly luciferase reporter construct for 6 hours. Additionally, cells were co-transfected with the TK-Renilla luciferase reporter as an indicator of non-specific compound effects. Various concentrations of the compounds disclosed herein were added to the 96-well plates. Plates were incubated for 19 hours at 37° C. and 5% C02 in 0.5% FBS containing DMEM medium. Cells were lysed with IX Passive Lysis Buffer (Promega). Plates were incubated for 30 minutes at room temperature. Luminescence counts were read with a Victor2 (Perkin-Elmer) plate reader.
One hour prior to cell lysis for the dual luciferase assay, 10 μl: per well of WST1 reagent (Roche) was added to the 96-well plates. Plates were incubated for 1 hour at 37° C. and 5% CO2. Cell viability was measured by WST1 absorbance at 450 nm with a Victor2 (Perkin-Elmer) plate reader.
Biological activity of the compounds disclosed herein were assessed in the SRE.L luciferase reporter assay. PC-3 prostate cancer cells were co-transfected with 2 ng of the Gα12Q231L expression plasmid along with 50 ng of the SRE.L and 7 ng of the pRL-TK luciferase reporter plasmids, as described in the Materials and Methods section. Cells were treated with 0 (vehicle, DMSO alone), 1, 3, 10, 30, and 100 μM of a compound disclosed herein for 19 hrs after transfection before lysis. Luminescence was determined as described in the Materials and Methods section. Just before cell lysis, the viability of the cells was measured using the WST-1 cell proliferation reagent as described in the Materials and Methods section. Data are expressed as percentage of inhibition (DMSO alone=0%). The experiments were performed three separate times to achieve n=3 in triplicate.
(In general: In a reporter assay the amount or activity of a reporter protein is the signal.)

For `CN1CCN(C(=O)c2cccc(-c3ccco3)c2)CC1C(=O)Nc1ccc(Cl)cc1` (stereo not drawn) [Example E-018, N-(4-chlorophenyl)-4-(3-(furan-2-yl)benzoyl)-1-methylpiperazine-2-carboxamide], the midpoint of inhibition, the IC50, lay at 8.7 µM.
The figure for `O=C(Nc1ccc(Cl)cc1)C1CN(C(=O)c2cccc(-c3ccco3)c2)CC(F)(F)C1` (stereo not drawn) [Example E-019, N-(4-chlorophenyl)-5,5-difluoro-1-(3-(furan-2-yl)benzoyl)piperidine-3-carboxamide] is 0.58 µM; for `C=C1CC(C(=O)Nc2ccc(Cl)cc2)CN(C(=O)c2cccc(-c3ccco3)c2)C1` (stereo not drawn) [Example E-020, N-(4-chlorophenyl)-1-(3-(furan-2-yl)benzoyl)-5-methylenepiperidine-3-carboxamide] it is 1.9 µM; for `COC1(OC)CC(C(=O)Nc2ccc(Cl)cc2)CN(C(=O)c2cccc(-c3ccco3)c2)C1` (stereo not drawn) [Example E-021, N-(4-chlorophenyl)-1-(3-(furan-2-yl)benzoyl)-5,5-dimethoxypiperidine-3-carboxamide] it is 4.4 µM.
As to `O=C(Nc1ccc(Cl)cc1)C1CCCN(C(=O)c2cncc(-c3ccco3)c2)C1` (stereo not drawn) [Example E-023, N-(4-chlorophenyl)-1-(5-(furan-2-yl)nicotinoyl)piperidine-3-carboxamide], the IC50 was 4.9 µM.
The value for `O=C(Nc1ccc(Cl)cc1)C1CCCN(C(=O)c2cc(-c3ccco3)ccn2)C1` (stereo not drawn) [Example E-024, N-(4-chlorophenyl)-1-(4-(furan-2-yl)picolinoyl)piperidine-3-carboxamide] was 4.3 µM; that for `O=C(Nc1ccc(Cl)cc1)C1CN(C(=O)c2cc(-c3ccco3)ccn2)CC(F)(F)C1` (stereo not drawn) [Example E-025, N-(4-chlorophenyl)-5,5-difluoro-1-{[4-(furan-2-yl)pyridin-2-yl]carbonyl}piperidine-3-carboxamide] was 0.81 µM; that for `O=C(Nc1ccc(Cl)cc1)C1CN(C(=O)c2cncc(-c3ccco3)c2)CC(F)(F)C1` (stereo not drawn) [Example E-026, N-(4-chlorophenyl)-5,5-difluoro-1-{[5-(furan-2-yl)pyridin-3-yl]carbonyl}piperidine-3-carboxamide] was 5.3 µM.
The figure for `O=C(Nc1ccc(Cl)cc1)C1CC(O)CN(C(=O)c2cccc(-c3ccco3)c2)C1` (stereo not drawn) [Example E-027, N-(4-chlorophenyl)-1-{[3-(furan-2-yl)phenyl]carbonyl}-5-hydroxypiperidine-3-carboxamide] is 12.5 µM.
The figure for `CC1(C(=O)Nc2ccc(Cl)cc2)CCCN(C(=O)c2cccc(-c3ccco3)c2)C1` (stereo not drawn) [Example E-028, N-(4-chlorophenyl)-1-(3-(furan-2-yl)benzoyl)-3-methylpiperidine-3-carboxamide] is 5 µM.
On to `Cc1ccc(-c2cccc(C(=O)N3CCCC(C(=O)Nc4ccc(Cl)cc4)C3)c2)o1` (stereo not drawn) [Example E-029, N-(4-chlorophenyl)-1-(3-(5-methylfuran-2-yl)benzoyl)piperidine-3-carboxamide], for which it took 3.1 µM to reach half-maximal inhibition (IC50).
The figure for `O=C(Nc1ccc(Cl)cc1)C1CCCN(C(=O)c2cccc(-n3cccn3)c2)C1` (stereo not drawn) [Example E-030, 1-(3-(1H-pyrazol-1-yl)benzoyl)-N-(4-chlorophenyl)piperidine-3-carboxamide] is 6.1 µM; for `O=C(Nc1ccc(Cl)cc1)C1CCCN(C(=O)c2cccc(-c3cn[nH]c3)c2)C1` (stereo not drawn) [Example E-031, 1-(3-(1H-pyrazol-4-yl)benzoyl)-N-(4-chlorophenyl)piperidine-3-carboxamide] it is 3.4 µM.
`O=C(Nc1ccc(Cl)cc1)C1CCCN(C(=O)c2cccc(-c3cc[nH]n3)c2)C1` (stereo not drawn) [Example E-032, 1-(3-(1H-pyrazol-3-yl)benzoyl)-N-(4-chlorophenyl)piperidine-3-carboxamide] came in with an IC50 of 3.2 µM. The IC50 values of the last two molecules are within 1.5-fold of each other.
The figure for `COc1ccc2nc(C(=O)N3CCCC(C(=O)Nc4ccc(Cl)cc4)C3)[nH]c2c1` (stereo not drawn) [Example E-033, N-(4-chlorophenyl)-1-(6-methoxy-1H-benzo[d]imidazole-2-carbonyl)piperidine-3-carboxamide] is 2.7 µM; for `O=C(Nc1ccc(Cl)cc1)C1CCCN(C(=O)c2cc(-c3ccco3)ncn2)C1` (stereo not drawn) [Example E-034, N-(4-chlorophenyl)-1-(6-(furan-2-yl)pyrimidine-4-carbonyl) piperidine-3-carboxamide] it is more than 100 µM.
The figure for `Cn1c(C(=O)N2CCCC(C(=O)Nc3ccc(Cl)cc3)C2)nc2ccccc21` (stereo not drawn) [Example E-035, N-(4-chlorophenyl)-1-(1-methyl-1H-benzo[d]imidazole-2-carbonyl)piperidine-3-carboxamide] is 8 µM; for `O=C(Nc1ccc(Cl)cc1)C1CCCN(C(=O)c2cnc(Br)s2)C1` (stereo not drawn) [Example E-036, 1-(2-bromothiazole-5-carbonyl)-N-(4-chlorophenyl) piperidine-3-carboxamide] it is more than 100 µM.
The figure for `O=C(Nc1ccc(Cl)cc1)C1CCCN(C(=O)c2cnc(-c3ccco3)s2)C1` (stereo not drawn) [Example E-037, N-(4-chlorophenyl)-1-(2-(furan-2-yl)thiazole-5-carbonyl)piperidine-3-carboxamide] is 18 µM; for `O=C(Nc1ccc(Cl)cc1)C1CCCN(C(=O)c2csc(-c3ccco3)n2)C1` (stereo not drawn) [Example E-038, N-(4-chlorophenyl)-1-(2-(furan-2-yl)thiazole-4-carbonyl) piperidine-3-carboxamide] it is 6.5 µM; for `O=C(Nc1ccc(Cl)cc1)C1CCCN(C(=O)c2cc(-c3ccco3)on2)C1` (stereo not drawn) [Example E-039, N-(4-chlorophenyl)-1-(5-(furan-2-yl)isoxazole-3-carbonyl) piperidine-3-carboxamide] it is 43 µM.
As for `O=C(Nc1ccc(Cl)cc1)C1CCCN(C(=O)c2cc(-c3ccco3)[nH]n2)C1` (stereo not drawn) [Example E-040, N-(4-chlorophenyl)-1-(5-(furan-2-yl)-1H-pyrazole-3-carbonyl)piperidine-3-carboxamide], the IC50 worked out at 8.1 µM. Against the preceding molecule, the IC50 is about 5.3-fold lower.
The value for `O=C(Nc1ccc(Cl)cc1)C1CN(C(=O)c2cc(F)cc(-c3ccncc3)c2)CC(F)(F)C1` (stereo not drawn) [Example E-041, N-(4-chlorophenyl)-5,5-difluoro-1-(3-fluoro-5-(pyridin-4-yl)benzoyl)piperidine-3-carboxamide] was 0.83 µM.
The value for `O=C(Nc1ccc(Cl)cc1)C1CN(C(=O)c2cncc(-c3ccncc3)c2)CC(F)(F)C1` (stereo not drawn) [Example E-042, 1-([3,4′-bipyridine]-5-carbonyl)-N-(4-chlorophenyl)-5,5-difluoropiperidine-3-carboxamide] was 0.91 µM.
Molecule `NC1CC(C(=O)Nc2ccc(Cl)cc2)CN(C(=O)c2cccc(-c3ccco3)c2)C1` (stereo not drawn) [Example E-043, 5-amino-N-(4-chlorophenyl)-1-(3-(furan-2-yl)benzoyl)piperidine-3-carboxamide] showed an IC50 of 5 µM.
The value for `CNC1CC(C(=O)Nc2ccc(Cl)cc2)CN(C(=O)c2cccc(-c3ccco3)c2)C1` (stereo not drawn) [Example E-044, N-(4-chlorophenyl)-1-(3-(furan-2-yl)benzoyl)-5-(methylamino)piperidine-3-carboxamide] was 2.2 µM; that for `Cn1cncc1-c1cccc(C(=O)N2CC(C(=O)Nc3ccc(Cl)cc3)CC(F)(F)C2)c1` (stereo not drawn) [Example E-047, N-(4-chlorophenyl)-5,5-difluoro-1-(3-(1-methyl-1H-imidazol-5-yl)benzoyl)piperidine-3-carboxamide] was 0.31 µM.
`O=C(Nc1ccc(Cl)cc1)C1CC(NCc2ccccc2)CN(C(=O)c2cccc(-c3ccco3)c2)C1` (stereo not drawn) [Example E-048, 5-(benzylamino)-N-(4-chlorophenyl)-1-(3-(furan-2-yl)benzoyl)piperidine-3-carboxamide] returned an IC50 of 0.047 µM.
The value for `CCC(=O)NC1CC(C(=O)Nc2ccc(Cl)cc2)CN(C(=O)c2cccc(-c3ccco3)c2)C1` (stereo not drawn) [Example E-049, N-(4-chlorophenyl)-1-(3-(furan-2-yl)benzoyl)-5-propionamidopiperidine-3-carboxamide] was 6.3 µM.
The figure for `O=C(Nc1ccc(Cl)cc1)C1CN(C(=O)c2cccc(-c3ncccn3)c2)CC(F)(F)C1` (stereo not drawn) [Example E-050, N-(4-chlorophenyl)-5,5-difluoro-1-(3-(pyrimidin-2-yl)benzoyl)piperidine-3-carboxamide] is 1.1 µM; for `O=C(c1cccc(-c2cn[nH]c2)c1)N1CC(COc2ccc(Cl)cc2)CC(F)(F)C1` (stereo not drawn) [Example E-051, (3-(1H-pyrazol-4-yl)phenyl)(5-((4-chlorophenoxy)methyl)-3,3-difluoropiperidin-1-yl)methanone] it is 3.3 µM.
The figure for `O=C(Nc1ccc(Cl)cc1)C1CN(C(=O)c2cccc(-c3ccco3)c2)CCS1` (stereo not drawn) [Example E-052, N-(4-chlorophenyl)-4-(3-(furan-2-yl)benzoyl) thiomorpholine-2-carboxamide] is 1.6 µM.
The molecule `O=C(Nc1ccc(Cl)cc1)C1CN(C(=O)c2cccc(-c3ccco3)c2)CCS1(=O)=O` (stereo not drawn) [Example E-053, N-(4-chlorophenyl)-4-(3-(furan-2-yl)benzoyl) thiomorpholine-2-carboxamide 1,1-dioxide] displayed an IC50 of 6.8 µM.

A word on the IC50: it is the midpoint of a concentration-inhibition curve. Low readings indicate greater potency, high ones weaker potency.
